Results taken from patent US20190270733A1, “Quinoline and Isoquinoline Based HDAC Inhibitors and Methods of Use Thereof” (Reaction Biology Corp., priority 2018, published 2019).
Values joined by “and” are separate entries in the source; they are usually repeats but may differ in a detail not shown here. Equal values may be shown once. Read-outs that look alike come from different tables or passages of the source.

What was measured:
[1] = biological target: T1, Complex of human HDAC3 and human NCOR2 (Homo sapiens, UniProt O15379); experiment: Biochemical HDAC assay, HDAC3; conditions: incubation time 10 min
T1 construct: full-length with a C-terminal His tag; His tag (C); made in house
T1 sequence (O15379 whole entry): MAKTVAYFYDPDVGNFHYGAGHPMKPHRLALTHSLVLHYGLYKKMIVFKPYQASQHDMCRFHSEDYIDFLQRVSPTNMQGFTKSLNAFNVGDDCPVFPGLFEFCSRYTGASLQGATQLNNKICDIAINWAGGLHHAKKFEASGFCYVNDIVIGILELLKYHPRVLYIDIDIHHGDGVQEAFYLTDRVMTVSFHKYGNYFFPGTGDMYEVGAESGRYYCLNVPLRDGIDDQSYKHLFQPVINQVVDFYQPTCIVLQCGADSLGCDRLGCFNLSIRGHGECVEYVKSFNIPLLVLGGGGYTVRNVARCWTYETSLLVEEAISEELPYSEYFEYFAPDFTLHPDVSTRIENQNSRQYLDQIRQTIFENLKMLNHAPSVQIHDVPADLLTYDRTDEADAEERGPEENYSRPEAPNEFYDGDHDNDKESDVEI
T1 sequence (Q9Y618 395-489 partner limits assumed): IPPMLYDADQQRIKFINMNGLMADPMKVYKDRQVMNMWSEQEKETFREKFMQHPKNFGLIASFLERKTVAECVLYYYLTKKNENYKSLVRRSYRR
Description: Complex of human HDAC3 (GenBank Accession No. NM_003883), full-length with a C-terminal His tag, MW=49.7 kDa, and human NCOR2 (amino acid 395-489) (GenBank Accession No. NM_006312), N-terminal GST tag, MW=37.6 kDa, was co-expressed in a baculovirus expression system.
• I. Compound handling: Testing compounds were dissolved in 100% DMSO to a specific concentration. The serial dilution was conducted by epMotion 5070 in DMSO. • II. HDAC reaction buffer: 50 mM Tris-HCl, pH8.0, 137 mM NaCl, 2.7 mM KCl, and 1 mM MgCl2, Added fresh: 1 mg/ml BSA, 1% DMSO. • III. Substrate: Fluorogenic HDAC General Substrate for HDAC1, 2, 3, 6, 10, 11 ans Sirt1, 2 and 3: Arg-His-Lys-Lys(Ac); HDAC8 only substrate: Arg-His-Lys(Ac)-Lys(Ac); Class2A Substrate (HDAC4, 5, 7 and 9): Acetyl-Lys(trifluoroacetyl)-AMC; Sirt5 substrate: Ac-Lys(succinyl)-AMC. • IV. General Reaction Procedure: (Standard IC50 determination) • a. Delivered 2× enzyme in wells of reaction plate except No Enzyme (No En) control wells. Add buffer in No En wells. • b. Delivered compounds in 100% DMSO into the enzyme mixture by Acoustic technology (Echo550; nanoliter range). Spin down and pre-incubation. • c. Delivered 2× Substrate Mixture (Fluorogenic HDAC Substrate and co-factor (500 μM of Nicotinamide adenine dinucleotide (NAD^+) in all Sirt assay) in all reaction wells to initiate the reaction. Spin and shake. • d. Incubated for 1-2 hr. at 30° C. with seal. • e. Added Developer with Trichostatin A (or TMP269 or NAD^+) to stop the reaction and to generate fluorescent color. • f. Fluorescence was read (excitatory, 360; emission, 460) using the EnVision Multilabel Plate Reader (Perkin Elmer) • g. Endpoint reading was taken for analysis after the development reaches plateau. • V. Data Analysis: The percentages of enzyme activity (relative to DMSO controls) and IC50 values were calculated using the GraphPad Prism 4 program based on a sigmoidal dose-response equation.
Compounds with indicated doses was tested in the biochemical assays of HDAC1, HDAC2, HDAC3, HDAC4, HDAC5, HDAC6, HDAC7, HDAC8, HDAC9, HDAC10, or HDAC11 enzyme. The incubation time in HDAC1/2 assays are 120 min, and that for other HDACs are 10 min. The curve fit and IC50 values were calculated using the GraphPad Prism 4 program based on a sigmoidal dose-response equation.

[2] = Mouse plasma PK (IV and PO dosing); assay type: in vivo, Male C57 Bl/6J mice; conditions: for AUC(0-inf): read-out: AUCINF—obs (converted); for MRT inf: read-out: MRTINF—obs
Description: In vivo PK (pharmacokinetics) studies were run at Scripps Florida DMPK Core facility. Mouse plasma PK data was obtained using the compound of Example 5 (N-(2-amino-5-(thiophen-2-yl)phenyl)-2-oxo-1,2,3,4-tetrahydroquinoline-6-carboxamide)
Dose: 1 mg/kg intravenous (IV), 7 mg/kg oral dosing (PO)
Formulation: 0.1 mg/mL (IV) and 1 mg/mL (PO) solution in 10/10/80 DMSO/Tween80/Water
Mice Info: Male C57 Bl/6J
Plasma PK were evaluated in mice after administration of compound Example 5. […] (Tmax), maximal concentration (Cmax), observed clearance (Cl_obs), mean residential time (MRT), and observed volume distribution (Vss_obs) were also quantified (Tables 2 and 3).

[3] = IV 1 mg/kg, mouse plasma, average
[4] = IV 1 mg/kg, mouse plasma, individual mice, 1 mg/kg
[5] = IV administration, mouse plasma
[6] = PO 7 mg/kg, mouse plasma, average
[7] = PO 7 mg/kg, mouse plasma, individual mice, 7 mg/kg
[8] = male, C57 Bl/6J, mouse, plasma, iv, 1 mg/kg, IV 1 mg/kg, mouse plasma, average
[9] = male, C57 Bl/6J, mouse, plasma, iv, 1 mg/kg, IV 1 mg/kg, mouse plasma, individual mice
[10] = male, C57 Bl/6J, mouse, plasma, po, 7 mg/kg, PO 7 mg/kg, mouse plasma, average
[11] = male, C57 Bl/6J, mouse, plasma, po, 7 mg/kg, PO 7 mg/kg, mouse plasma, individual mice

## Nc1ccc(-c2cccs2)cc1NC(=O)c1ccc2c(c1)CCC(=O)N2 [Example 5, N-(2-amino-5-(thiophen-2-yl)phenyl)-2-oxo-1,2,3,4-tetrahydroquinoline-6-carboxamide]
[1]
  IC50: > 10 µM
[2]; [3]
  AUC (% Extrap): 1.42%
  Cl_obs: 5.33 mL/min/kg
  Vss_obs: 0.40 L/kg
[2]; [4]
  AUC (% Extrap): 1.31% and 1.23% and 1.71%
  AUCINF—obs: 184402 ng·min/mL and 207009 ng·min/mL
  AUClast: 8.36 μM · hr and 9.34 μM · hr and 182140 min * ng/mL and 203467 min * ng/mL
  Cl_obs: 5.75 mL/min/kg and 5.42 mL/min/kg and 4.83 mL/min/kg
  Cmax: 2480 ng/mL and 4540 ng/mL and 5820 ng/mL
  MRTINF—obs: 1.19 h and 1.14 h
  T1/2: 1.52 h and 1.59 h
  Tmax: 0.08 hr (2×) and 0.25 hr
  Vss_obs: 0.48 L/kg and 0.39 L/kg and 0.33 L/kg
[2]; IV 1 mg/kg, mouse plasma, individual mice, 1 mg/kg, read-out: Cmax
  Cmax: 6.83 µM and 12.5 µM and 16 µM
[2]; [5]
  clearance (in words): low clearance
  volume (in words): low volume
[2]; [6]
  AUC (% Extrap): 9.95%
  Cl_obs: 25.89 mL/min/kg
[2]; [7]
  AUC (% Extrap): 6.21% and 14.68% and 8.96%
  AUCINF—obs: 227793 ng·min/mL and 250553 ng·min/mL
  AUClast: 8.92 μM · hr and 10.47 μM · hr and 194363 min * ng/mL and 228113 min * ng/mL
  Cl_obs: 18.99 mL/min/kg and 30.73 mL/min/kg and 27.94 mL/min/kg
  Cmax: 1590 ng/mL and 1620 ng/mL
  T1/2: 3.30 h and 2.62 h
  Tmax: 1.00 hr and 0.25 hr (2×)
[2]; PO 7 mg/kg, mouse plasma, individual mice, 7 mg/kg, read-out: Cmax
  Cmax: 4.38 µM and 4.46 µM
[2]; male, C57 Bl/6J, 1 mg/kg, IV administration, mouse plasma, read-out: AUC
  AUC: 8.5 µM·h
[2]; male, C57 Bl/6J, 7 mg/kg, PO dosing, mouse plasma, read-out: AUC (area under the curve)
  AUC: 11 to 12 µM·h
[2]; [8]
  AUC(0-t): 8.53 µM·h and 3100 ng·h/mL
  AUC(0-inf): 3140 ng·h/mL
  MRT inf: 1.24 h
[2]; male, C57 Bl/6J, mouse, plasma, iv, 1 mg/kg, IV 1 mg/kg, mouse plasma, average, read-out: Cmax
  Cmax: 4280 ng/mL and 11.8 µM
[2]; male, C57 Bl/6J, mouse, plasma, iv, 1 mg/kg, IV 1 mg/kg, mouse plasma, average, read-out: T1/2 (converted)
  half-life: 1.48 h
[2]; male, C57 Bl/6J, mouse, plasma, iv, 1 mg/kg, IV 1 mg/kg, mouse plasma, average, read-out: Tmax
  Tmax: 0.14 h
[2]; [9]
  AUC(0-t): 7.88 µM·h and 2860 ng·h/mL
  AUC(0-inf): 2900 ng·h/mL
  MRT inf: 1.39 h
[2]; male, C57 Bl/6J, mouse, plasma, iv, 1 mg/kg, IV 1 mg/kg, mouse plasma, individual mice, read-out: T1/2 (converted)
  half-life: 1.34 h
[2]; male, C57 Bl/6J, mouse, plasma, iv, 1 mg/kg, IV administration, mouse plasma, read-out: half-life (T1/2) (converted)
  half-life: 1.5 h
[2]; [10]
  AUC(0-t): 11.8 µM·h and 4270 ng·h/mL
  AUC(0-inf): 4710 ng·h/mL
[2]; male, C57 Bl/6J, mouse, plasma, po, 7 mg/kg, PO 7 mg/kg, mouse plasma, average, read-out: Cmax
  Cmax: 1960 ng/mL and 5.4 µM
[2]; male, C57 Bl/6J, mouse, plasma, po, 7 mg/kg, PO 7 mg/kg, mouse plasma, average, read-out: T1/2 (converted)
  half-life: 2.66 h
[2]; male, C57 Bl/6J, mouse, plasma, po, 7 mg/kg, PO 7 mg/kg, mouse plasma, average, read-out: Tmax
  Tmax: 0.5 h
[2]; [11]
  AUC(0-t): 15.9 µM·h and 5760 ng·h/mL
  AUC(0-inf): 6140 ng·h/mL
[2]; male, C57 Bl/6J, mouse, plasma, po, 7 mg/kg, PO 7 mg/kg, mouse plasma, individual mice, read-out: Cmax
  Cmax: 2670 ng/mL and 7.36 µM
[2]; male, C57 Bl/6J, mouse, plasma, po, 7 mg/kg, PO 7 mg/kg, mouse plasma, individual mice, read-out: T1/2 (converted)
  half-life: 2.05 h
[2]; male, C57 Bl/6J, mouse, plasma, po, 7 mg/kg, PO dosing, mouse plasma, read-out: half-life (converted)
  half-life: 2.7 h
[2]; male, C57 Bl/6J, plasma, PO 7 mg/kg vs IV 1 mg/kg, mouse, read-out: % F (bioavailability)
  bioavailability: 20%
